Laboratory results from patent US9738653B2, “Fused furans for the treatment of hepatitis C” (BRISTOL-MYERS SQUIBB COMPANY, priority 2013, dated 2017).

Each compound was assayed on genotype 1b (Con-1) HCV replicon in Huh-7 cells (assay: HCV replicon luciferase assay). Conditions: 1b replicon, Renilla luciferase, 3 days incubation.
Format: cell-based
Protocol: The cell lines used to evaluate compounds consist of a human hepatocyte derived cell line (Huh-7) that constitutively expresses a genotype 1b (Con-1) HCV replicon or a genotype 1b (Con-1) HCV replicon with an asparagine replacing the cysteine at amino acid 316, or a genotype 2a (JFH-1) replicon, containing a Renilla luciferase reporter gene. These cells were maintained in Dulbecco's modified Eagle medium (DMEM) containing 10% FBS, 100 U/mL penicillin/streptomycin and 1.0 mg/mL G418.
To evaluate compound efficacy, titrated compounds were transferred to sterile 384-well tissue culture treated plates, and the plates were seeded with HCV replicon cells ([…] at a density of 2.4×10^3 cells/well) in DMEM containing 4% FBS (final DMSO concentration at 0.5%). After 3 days incubation at 37° C., cells were analyzed for Renilla Luciferase activity using the EnduRen substrate (Promega cat #E6485) according to the manufacturer's directions. Briefly, the EnduRen substrate was diluted in DMEM and then added to the plates to a final concentration of 7.5 μM. The plates were incubated for at least 1 h at 37° C. then read on a Viewlux Imager (PerkinElmer) using a luminescence program. The 50% effective concentration (EC50) was calculated using the four-parameter logistic formula noted above.
Compound `CCC(C)c1cc2oc(-c3ccc(F)cc3)c(C(=O)NC)c2cc1-c1cccc(C(=O)NC23CC(C2)C3)c1` (stereo not shown) [drawing 305] has an EC50 of 20 nM.

Same assay, conditions: Hepatitis C virus, Huh-7, 72 h, 1b replicon, Renilla luciferase, 3 days incubation
`CNC(=O)c1c(-c2ccc(F)cc2)oc2nc(CCC(F)(F)F)c(-c3csc(C(=O)NC45CC(C4)C5)c3)cc12` gave an EC50 of 20 nM.
For `CNC(=O)c1c(-c2ccc(F)cc2)oc2cc(CC(=O)OC)c(-c3ccc(F)c(C(=O)NC45CC(C4)C5)c3)cc12`, the EC50 was 20 nM.
With `CNC(=O)c1c(-c2ccc(F)cc2)oc2nc(NCC(F)(F)F)c(-c3cccc(C(=O)NC45CC(C4)C5)c3)cc12` the EC50 was 3.58 nM.
In the case of `CNC(=O)c1c(-c2ccc(F)cc2)oc2cc(N)c(-c3ccc(OC)c(C(=O)NC45CC(C4)C5)c3)cc12`, the EC50 is reported as 10 nM.
In the case of `CNC(=O)c1c(-c2ccc(F)cc2)oc2cc(CCC(F)(F)F)c(-c3cccc(C(=O)NC45CC(C4)C5)c3)cc12`, the EC50 is reported as 30 nM.
In the case of `CNC(=O)c1c(-c2ccc(F)cc2)oc2cc(COC)c(-c3cccc(C(=O)NC45CC(C4)C5)c3)cc12`, the EC50 is reported as 6.21 nM.
`CNC(=O)c1c(-c2ccc(F)cc2)oc2cc(CC(=O)N(C)C)c(-c3cccc(C(=O)NC45CC(C4)C5)c3)cc12` was tested, and the EC50 was 310 nM.
In the case of `CNC(=O)c1c(-c2ccc(F)cc2)oc2cc(CC(=O)O)c(-c3ccc(F)c(C(=O)NC45CC(C4)C5)c3)cc12`, the EC50 is reported as 8090 nM.
With `CNC(=O)Cc1cc2oc(-c3ccc(F)cc3)c(C(=O)NC)c2cc1-c1ccc(F)c(C(=O)NC23CC(C2)C3)c1` the EC50 was 50 nM.
`CNC(=O)c1c(-c2ccc(F)cc2)oc2cc(OCC(F)(F)F)c(-c3cccc(C(=O)NC45CC(C4)C5)c3)cc12` showed an EC50 of 10 nM.
`CNC(=O)c1c(-c2ccc(F)cc2)oc2cc(CC(=O)O)c(-c3cccc(C(=O)NC45CC(C4)C5)c3)cc12` showed an EC50 of over 10000 nM.
`CNC(=O)c1c(-c2ccc(F)cc2)oc2nc(N(CC(F)(F)F)S(C)(=O)=O)c(-c3cccc(C(=O)NC45CC(C4)C5)c3)cc12` showed an EC50 of 20 nM.
`CNC(=O)c1c(-c2ccc(F)cc2)oc2cc(CCC(F)(F)F)c(-c3ccc(F)c(C(=O)NC45CC(C4)C5)c3)c(F)c12` was tested, and the EC50 was 40 nM.
Work on `CNC(=O)c1c(-c2ccc(F)cc2)oc2cc(CC(N)=O)c(-c3ccc(F)c(C(=O)NC45CC(C4)C5)c3)cc12` yielded an EC50 of 10 nM.
With `CNC(=O)c1c(-c2ccc(F)cc2)oc2cc(CS(C)(=O)=O)c(-c3cccc(C(=O)NC45CC(C4)C5)c3)cc12` the EC50 was 70 nM.
With `CNC(=O)c1c(-c2ccc(F)cc2)oc2cc(CCC(F)(F)F)c(-c3cccc(C(=O)NC45CC(C4)C5)c3)c(F)c12` the EC50 was 10 nM.
For `CNC(=O)c1c(-c2ccc(F)cc2)oc2cc(CC(=O)N(C)C)c(-c3ccc(F)c(C(=O)NC45CC(C4)C5)c3)cc12`, the EC50 was 520 nM.
With `CNC(=O)c1c(-c2ccc(F)cc2)oc2cc(CS(C)(=O)=O)c(-c3ccc(F)c(C(=O)NC45CC(C4)C5)c3)cc12` the EC50 was 70 nM.
`CNC(=O)c1c(-c2ccc(F)cc2)oc2nc(NCC(F)(F)F)c(-c3cc(C(=O)NC45CC(C4)C5)ccc3OC)cc12` was tested, and the EC50 was 9.14 nM.
Work on `CNC(=O)Cc1cc2oc(-c3ccc(F)cc3)c(C(=O)NC)c2cc1-c1cccc(C(=O)NC23CC(C2)C3)c1` yielded an EC50 of 50 nM.
`CNC(=O)c1c(-c2ccc(F)cc2)oc2cc(CCCOC(=O)c3ccccc3)c(-c3cccc(C(=O)NC45CC(C4)C5)c3)cc12` showed an EC50 of 140 nM.
